Patent US6916446B1, “Bioreactor method, apparatus and product thereby” (The United States of America as represented by the …, priority 2002, dated 2005)
“And” between values parts separate entries of the source, which are not always exact repeats. Equal entries are not always repeated.

Tested on: strain IMB-1
Assay: Closed-system re-circulating bioreactor with washed cell suspension of strain IMB-1
Assay type: cell-based, strain IMB-1 (ATCC 202197)
Experimental: Procedures for forming the methylotrophic bacterium 18 within the bioreactor 10 include, for example and without limitation, strain IMB-1 being grown aerobically in batch mode using pulsed additions of MeBr for use as an inoculum for the bioreactor. Additions of MeBr from about 0.01 to about 0.1 g were made approximately daily for several weeks. Cells (1 L) were grown to elevated density (approximately 1.5×10^8 cells/cm^3) in stoppered, 2-L flasks with rotary shaking. Growth occurred in mineral salts media containing mono- and dibasic phosphate (ΣPO4^31 '=1.4 mM) as well as sulfate and trace minerals (see e.g. Schaefer, J. K. and R. S. Oremland, Oxidation of Methyl Halides by the Facultative Methylotroph Strain IMB-1. Appl. Environ. Microbiol. 65 (1999): pp 5035-5041) the disclosure of which is hereby incorporated by reference. Media concentrations were tripled in order to provide additional nutrients and buffer capacity. Cells were grown at about 28° C. Cells were washed and re-suspended to 0.5 L in fresh media and transferred to the gas-washing bottle of the bioreactor having an initial cell density approximately equal to 3×10^8 cells/cm^3. Once the methylotrophic bacterium 18 constitutes part of the biofilter 16, the methyl halide is pumped from the reservoir 14 to the biofilter 16 for direct oxidation.
The biofilter 16 includes a mass of methylotrophic bacteria 18 within a container for bio-degradation of the methyl halides 30. The biofilter 16 constitutes the active surface of the bioreactor 10. The initial cell density was 3×10^8 cells/cm^3. The peristaltic pump 12 was used to circulate the methyl halide 30 gas in this system at a flow rate of 0.2 liter/min through inert rubber tubing (Pharmed), manufactured by Cole Parmer of Vernon Hills, Ill., and having 0.4 cm I.D. Stainless steel tubing (0.4 cm I.D.) was used to connect the components of the bioreactor 10. Methane (CH4) was added (3.2 g/m^3) to serve as a control and an internal standard.
A closed-system bioreactor was built using the general design of FIG. 1 and employed for testing on a laboratory bench. The bioreactor was started with 0.5 L of growing culture of methylotrophic bacteria strain IMB-1 and removed MeBr at fumigation concentrations (>17 g/m^3) from re-circulating air. Strain IMB-1 grew to high cell densities (5×10^9 cells/cm^3) in the bioreactor within several days using pulsed additions of MeBr as the sole carbon and energy source. The addition of the MeBr was done as a gas. Bacterial oxidation of MeBr produced CO2 and hydrobromic acid (HBr) which could be neutralized by addition of NaOH. Strain IMB-1 was capable of sustained oxidation of large amounts of MeBr (16 g in 46 days). […] Oxidation of MeBr was unaffected by the presence of elevated dissolved solutes (>26 g/kg) that approached the salinity of seawater. Strain IMB-1 grown on MeBr was 7 times more efficient at removing MeBr from the headspace of flasks than cultures grown on glucose (55 vs. 8×10^−15 g MeBr/cell/hr, respectively). An open-system bioreactor having 10 L of growing culture used a continuous supply of MeBr (21.2 g/m^3 in air). Growth of strain IMB-1 was continuous and 80 g of MeBr was removed from the air supply in 15 days.

Structure (SMILES): CBr [MeBr, methyl bromide]
- time to consumption of added MeBr (0.21 g added MeBr, by the third day of operation): ≤ 4 h
- reduction of methyl bromide concentration during a single pass through the filter (after 2 weeks operation): up to 5 g/m^3
- time to removal of all added MeBr (after several equivalent additions of 9 g/m^3 MeBr): approximately 6 hours
- time to removal of added MeBr (first addition of 0.21 g MeBr): 24 h
- amount of MeBr oxidized (in 46 days, pulses of 0.21 g up to three times a day): 16 g and 16.2 g
- time to oxidation of initial levels of methyl bromide (initial 9 g/m^3, washed cell suspensions): ≤ 24 h
